As a reminder, the pIC50 is −log10 of the IC50, conventionally taken in molar units. A high value points to a small IC50.

Structures are written as SMILES. pIC50: −log10 of the molar value.

This passage reports IC50 results from ChEMBL document CHEMBL6092147, “Design of inhibitors of SARS-CoV-2 papain-like protease deriving from GRL0617: Structure-activity relationships” (Bioorg Med Chem, 2024).

The first test deals with T1, Replicase polyprotein 1ab (Severe acute respiratory syndrome coronavirus 2, UniProt P0DTD1). Briefly: Inhibition of SARS-CoV-2 papain-like protease (PLpro) by enzymatic assay.
Regarding `CCn1ccc(-c2cc(-c3ccn(CC)n3)cc([C@@H](C)NC(=O)c3cc(OCCN(C)C)ccc3C)c2)n1`, the pIC50 is 6.70.

For the molecule `CCn1ccc(-c2cc(-c3cnn(COC)c3)cc([C@@H](C)NC(=O)c3cc(OCCN(C)C)ccc3C)c2)n1`, the pIC50 is 6.62.

In turn, `Cc1ccc(OCCN(C)C)cc1C(=O)N[C@H](C)c1cc(-c2cnn(C(F)F)c2)cc(-c2cnn(C(F)F)c2)c1` had a pIC50 of 6.77.

As to `CCn1ccc(-c2cc(-c3cnn(C4COC4)c3)cc([C@@H](C)NC(=O)c3cc(OCCN(C)C)ccc3C)c2)n1`, the pIC50 was 6.59.

Turning to `COc1ncc(-c2cc(-c3cnc(OC)nc3)cc([C@@H](C)NC(=O)c3cc(OCCN(C)C)ccc3C)c2)cn1`, the pIC50 is 5.71.

With `Cc1ccc(OCCN(C)C)cc1C(=O)N[C@H](C)c1cc(-c2cnn(CCO)c2)cc(-c2cnn(CCO)c2)c1`, the pIC50 is 6.80. Compared with the last molecule, the pIC50 is 1.09 log units higher.

`Cc1ccc(OCCN(C)C)cc1C(=O)N[C@H](C)c1cc(-c2ccc(O)cc2)cc(-c2ccc(O)cc2)c1`: the pIC50 was 6.80.

In turn, `Cc1ccc(-c2cc(-c3ccc(C)s3)cc([C@@H](C)NC(=O)c3cc(OCCN(C)C)ccc3C)c2)s1` showed a pIC50 of 6.85.

`CCn1ccc(-c2cc(-c3cnn(CC(F)(F)F)c3)cc([C@@H](C)NC(=O)c3cc(OCCN(C)C)ccc3C)c2)n1` showed a negative-log IC50 (pIC50) of 6.57.

Molecule `COCCn1cc(-c2cc(-c3cnn(CCOC)c3)cc([C@@H](C)NC(=O)c3cc(OCCN(C)C)ccc3C)c2)cn1` had a pIC50 of 6.74. This pIC50 and that of the molecule before are within 0.2 log units of each other.

With `CCn1ccc(-c2cc(-c3ccn(CC(F)F)n3)cc([C@@H](C)NC(=O)c3cc(OCCN(C)C)ccc3C)c2)n1`, the pIC50 was 6.66.

For `CCn1ccc(-c2cc(-c3cnn(C(F)F)c3)cc([C@@H](C)NC(=O)c3cc(OCCN(C)C)ccc3C)c2)n1`, the pIC50 is 6.49. The pIC50 values of the last two molecules are within 0.2 log units of each other.

For `Cc1ccc(OCCN(C)C)cc1C(=O)N[C@H](C)c1cc(-c2c(C)noc2C)cc(-c2c(C)noc2C)c1`, the pIC50 is 6.40.

`Cc1ccc(OCCN(C)C)cc1C(=O)N[C@H](C)c1cc(-c2ccoc2)cc(-c2ccoc2)c1` showed a pIC50 of 7.10.

In turn, `CCn1ccc(-c2cc(-c3cnn(C(C)C)c3)cc([C@@H](C)NC(=O)c3cc(OCCN(C)C)ccc3C)c2)n1` showed a pIC50 of 6.70.

The molecule `Cc1ccc(OCCN(C)C)cc1C(=O)N[C@H](C)c1cc(-c2cncs2)cc(-c2cncs2)c1` showed a negative-log IC50 (pIC50) of 7.00. Against the preceding molecule, the pIC50 is 0.30 log units higher.

On to `Cc1ccc(OCCN(C)C)cc1C(=O)N[C@H](C)c1cc(-c2ccnn2C)cc(-c2ccnn2C)c1`, for which the pIC50 is 6.34.

For `CCn1ccc(-c2cc(-c3cnn(CC(F)F)c3)cc([C@@H](C)NC(=O)c3cc(OCCN(C)C)ccc3C)c2)n1`, the pIC50 was 6.64.

In the case of `CCn1nccc1-c1cc(-c2ccnn2CC)cc([C@@H](C)NC(=O)c2cc(OCCN(C)C)ccc2C)c1`, the pIC50 is 6.36.

In turn, `Cc1ccc(OCCN(C)C)cc1C(=O)N[C@H](C)c1cc(-c2ccsc2)cc(-c2ccsc2)c1` gave a pIC50 of 7.00.

On to `Cc1ccc(OCCN(C)C)cc1C(=O)N[C@H](C)c1cc(-c2ccco2)cc(-c2ccco2)c1`, for which the pIC50 is 6.70.

On to `CCn1ccc(-c2cc(-c3ccn(C(F)F)n3)cc([C@@H](C)NC(=O)c3cc(OCCN(C)C)ccc3C)c2)n1`, for which the pIC50 is 6.40.

`CCn1ccc(-c2cc(-c3ccn(C)n3)cc([C@@H](C)NC(=O)c3cc(OCCN(C)C)ccc3C)c2)n1` had a pIC50 of 6.48.

Molecule `Cc1ccc(OCCN(C)C)cc1C(=O)N[C@H](C)c1cc(-c2ccccc2)cc(-c2ccccc2)c1` gave a pIC50 of 6.99.

The next test has as its target T1, Replicase polyprotein 1ab. Description: Inhibition of SARS-CoV-2 Main protease extracted from Escherichia coli BL21 (DE3) cells measured for 60 mins by FRET based analysis.
As to `Cc1ccc(NC[C@H]2CCCN2C)cc1C(=O)N[C@H](C)c1cccc2ccccc12`, the pIC50 is 5.82.

With `Cc1ccc(NC[C@H]2CCCCN2C)cc1C(=O)N[C@H](C)c1cccc2ccccc12`, the pIC50 was 5.82.

`Cc1ccc(NCC2CNC2)cc1C(=O)N[C@H](C)c1cccc2ccccc12` gave a pIC50 of 6.00.

Molecule `Cc1ccc(NC[C@@]2(C)CCCN2)cc1C(=O)N[C@H](C)c1cccc2ccccc12` gave a pIC50 of 5.96.

`Cc1ccc(NC(=O)NCCN)cc1C(=O)N[C@H](C)c1cccc2ccccc12`: the pIC50 is 5.96.

In the case of `Cc1ccc(NC(=O)CN2CCCC2)cc1C(=O)N[C@H](C)c1cccc2ccccc12`, the pIC50 was 5.96.

In turn, `Cc1ccc(NC2CCN(C[C@@H]3CCCN3)CC2)cc1C(=O)N[C@H](C)c1cccc2ccccc12` had a pIC50 of 6.00.

`Cc1ccc(NC[C@]2(C)CCCN2)cc1C(=O)N[C@H](C)c1cccc2ccccc12` had a pIC50 of 5.92.

`Cc1ccc(NC[C@@H](N)CNC[C@H]2CCCN2)cc1C(=O)N[C@H](C)c1cccc2ccccc12` gave a pIC50 of 5.96.

`Cc1ccc(NC[C@@H]2CCCCN2C)cc1C(=O)N[C@H](C)c1cccc2ccccc12` had a pIC50 of 5.85.

Regarding `Cc1ccc(NC(=O)[C@H]2CCCN2)cc1C(=O)N[C@H](C)c1cccc2ccccc12`, the pIC50 was 5.85.

Take `Cc1ccc(NC(=O)CNCC2CC2)cc1C(=O)N[C@H](C)c1cccc2ccccc12`: the pIC50 was 5.89.

`Cc1ccc(NC(=O)C2CNCCN2)cc1C(=O)N[C@H](C)c1cccc2ccccc12` (mixture of isomers) gave a pIC50 of 5.82.

Consider `Cc1ccc(NCC2CN(C)CCN2)cc1C(=O)N[C@H](C)c1cccc2ccccc12` (mixture of isomers), for which the pIC50 is 5.82.

For another test, the target named is T1, Replicase polyprotein 1ab. Description: Inhibition of SARS-CoV-2 Main protease using Dabcyl-KLSAVLQSGFRKM-Edans-NH2 as substrate incubated for 30 mins by FRET based enzymatic assay.
Regarding `Cc1ccc(OCCN(C)C)cc1C(=O)N[C@H](C)c1cc(-c2cnn(CCN(C)C)c2)cc(-c2cccs2)c1`, the pIC50 was 6.96.

Molecule `Cc1ccc(OCCN(C)C)cc1C(=O)N[C@H](C)c1cc(-c2cnn(CCO)c2)cc(-c2ccnn2C)c1` had a pIC50 of 6.85.

In turn, `Cc1ccc(OCCN(C)C)cc1C(=O)N[C@H](C)c1cc(-c2cnn(C)c2)cc(-c2cnn(CC(N)=O)c2)c1` had a pIC50 of 7.15. This pIC50 is 0.30 log units higher than that of the molecule before.

The molecule `Cc1ccc(OCCN(C)C)cc1C(=O)N[C@H](C)c1cc(-c2cnn(CCO)c2)cc(-c2cccs2)c1` gave a pIC50 of 6.96.

`Cc1ccc(OCCN(C)C)cc1C(=O)N[C@H](C)c1cc(-c2cnn(CCO)c2)cc(-c2ccc(CN3CCCC3)s2)c1` gave a pIC50 of 7.15.

In turn, `Cc1ccc(OCCN(C)C)cc1C(=O)N[C@H](C)c1cc(-c2cnn(CC3CCOCC3)c2)cc(-c2ccn(C)n2)c1` had a pIC50 of 7.10.

For the molecule `Cc1ccc(OCCN(C)C)cc1C(=O)N[C@H](C)c1cc(-c2ccc3cnn(C)c3c2)cc(-c2cnn(C)c2)c1`, the pIC50 is 6.89.

For the molecule `Cc1ccc(OCCN(C)C)cc1C(=O)N[C@H](C)c1cc(-c2cnn(C(C)C)c2)cc(-c2cnn(C(F)F)c2)c1`, the pIC50 is 6.80.

`Cc1ccc(OCCN(C)C)cc1C(=O)N[C@H](C)c1cc(-c2cnn(CC(N)=O)c2)cc(-c2cccs2)c1`: the pIC50 is 7.10. This pIC50 is 0.30 log units higher than that of the molecule before.

In the case of `Cc1ccc(OCCN(C)C)cc1C(=O)N[C@H](C)c1cc(-c2cnn(C)c2)cc(-c2cnn(CC3CCOCC3)c2)c1`, the pIC50 is 7.15.

Regarding `Cc1ccc(OCCN(C)C)cc1C(=O)N[C@H](C)c1cc(-c2ccn(C)n2)cc(-c2ccn(C3CC3)n2)c1`, the pIC50 was 6.92.

On to `Cc1ccc(OCCN(C)C)cc1C(=O)N[C@H](C)c1cc(-c2ccc(N3CCOCC3)nc2)cc(-c2cnn(C)c2)c1`, for which the negative logarithm of the IC50 (pIC50) was 7.10.

In turn, `COCCn1cc(-c2cc(-c3cnn(CC(N)=O)c3)cc([C@@H](C)NC(=O)c3cc(OCCN(C)C)ccc3C)c2)cn1` had a pIC50 of 7.05.

`Cc1ccc(OCCN(C)C)cc1C(=O)N[C@H](C)c1cc(-c2cn[nH]c2)cc(-c2cccs2)c1` gave a pIC50 of 7.10.

Turning to `Cc1ccc(OCCN(C)C)cc1C(=O)N[C@H](C)c1cc(-c2cnn(CC(F)(F)F)c2)cc(-c2cccs2)c1`, the pIC50 was 7.15.

In turn, `COCCn1cc(-c2cc(-c3cnn(CCO)c3)cc([C@@H](C)NC(=O)c3cc(OCCN(C)C)ccc3C)c2)cn1` had a pIC50 of 7.00. This pIC50 and that of the molecule before are within 0.2 log units of each other.

`Cc1ccc(OCCN(C)C)cc1C(=O)N[C@H](C)c1cc(-c2cnn(C)c2)cc(-c2ccc(CN3CCOCC3)o2)c1` had a pIC50 of 6.92. The pIC50 values of the last two molecules are within 0.2 log units of each other.

`Cc1ccc(OCCN(C)C)cc1C(=O)N[C@H](C)c1cc(-c2cnn(C(F)F)c2)cc(-c2cnn(C3CC3)c2)c1` showed a pIC50 of 7.05.

For the molecule `CC(=O)n1cc(-c2cc(-c3cnn(C)c3)cc([C@@H](C)NC(=O)c3cc(OCCN(C)C)ccc3C)c2)cn1`, the pIC50 was 6.96. The pIC50 values of the last two molecules are within 0.2 log units of each other.

As for `Cc1ccc(OCCN(C)C)cc1C(=O)N[C@H](C)c1cc(-c2ccc(N3CCOCC3)nc2)cc(-c2cccs2)c1`, the pIC50 was 7.05.

Molecule `COCCn1cc(-c2cc(-c3cnn(C(F)F)c3)cc([C@@H](C)NC(=O)c3cc(OCCN(C)C)ccc3C)c2)cn1` had a pIC50 of 6.96.

On to `Cc1ccc(OCCN(C)C)cc1C(=O)N[C@H](C)c1cc(-c2cnn(CCO)c2)cc(-c2cnn(CCN(C)C)c2)c1`, for which the pIC50 is 6.85.

Regarding `COCCn1cc(-c2cc(-c3cnn(CC(F)F)c3)cc([C@@H](C)NC(=O)c3cc(OCCN(C)C)ccc3C)c2)cn1`, the pIC50 was 6.70.

`COCCn1cc(-c2cc(-c3cncs3)cc([C@@H](C)NC(=O)c3cc(OCCN(C)C)ccc3C)c2)cn1` gave a pIC50 of 6.96.

The molecule `Cc1ccc(OCCN(C)C)cc1C(=O)N[C@H](C)c1cc(-c2cnn(C(C)C)c2)cc(-c2ccn(C)n2)c1` showed a pIC50 of 6.96.

`Cc1ccc(OCCN(C)C)cc1C(=O)N[C@H](C)c1cc(-c2ccn(C)n2)cc(-c2ccn(C)n2)c1` gave a pIC50 of 6.85.

In turn, `COCCn1cc(-c2cc(-c3cccs3)cc([C@@H](C)NC(=O)c3cc(OCCN(C)C)ccc3C)c2)cn1` gave a pIC50 of 6.96.

Turning to `Cc1ccc(OCCN(C)C)cc1C(=O)N[C@H](C)c1cc(-c2cnn(C(F)F)c2)cc(-c2ccn(C)n2)c1`, the pIC50 is 7.05. The pIC50 values of the last two molecules are within 0.2 log units of each other.

Molecule `Cc1ccc(OCCN(C)C)cc1C(=O)N[C@H](C)c1cc(-c2cnn(C(F)F)c2)cc(-c2cccs2)c1` had a pIC50 of 7.15. The pIC50 values of the last two molecules are within 0.2 log units of each other.

In turn, `Cc1ccc(OCCN(C)C)cc1C(=O)N[C@H](C)c1cc(-c2cnn(C)c2)cc(-c2cnn(CCO)c2)c1` had a pIC50 of 7.05. This pIC50 and that of the molecule before are within 0.2 log units of each other.

On to `COCCn1cc(-c2cc(-c3ccn(C)n3)cc([C@@H](C)NC(=O)c3cc(OCCN(C)C)ccc3C)c2)cn1`, for which the pIC50 is 7.05.

`Cc1ccc(OCCN(C)C)cc1C(=O)N[C@H](C)c1cc(-c2cnn(CCO)c2)cc(-c2cnn(C(F)F)c2)c1`: the pIC50 is 7.05.

The molecule `Cc1ccc(OCCN(C)C)cc1C(=O)N[C@H](C)c1cc(-c2cnn(CCN3CCOCC3)c2)cc(-c2cccs2)c1` showed a pIC50 of 7.22.

The molecule `Cc1ccc(OCCN(C)C)cc1C(=O)N[C@H](C)c1cc(-c2cnn(C)c2)cc(-c2cccs2)c1` gave a pIC50 of 6.82.
